Experimental data reported in ChEMBL document CHEMBL1201862, “PubChem BioAssay data set” (2004).
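The compound was tested at five concentrations on cells cultured in 96-well plates, with a 48-hour exposure period. GI50 is the concentration that inhibits growth by half.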 Activity calls are given as the source filed them. Rule as the data show it: active = GI50 up to about 1.1 µM and inactive = higher.

Legend:
Assay in all cases: inhibition of tumour cell growth, NCI panel, 48 h
786-0 = test system: 786-0
ACHN = test system: ACHN
CCRF-CEM = test system: CCRF-CEM
COLO 205 = test system: COLO 205
EKVX = test system: EKVX
HCT-15 = test system: HCT-15
LOX IMVI = test system: LOX IMVI
NCI-H226 = test system: NCI-H226
NCI/ADR-RES = test system: NCI/ADR-RES
OVCAR-3 = test system: OVCAR-3
OVCAR-8 = test system: OVCAR-8
RPMI-8226 = test system: RPMI-8226
SF-268 = test system: SF-268
SK-MEL-28 = test system: SK-MEL-28
SK-OV-3 = test system: SK-OV-3
SNB-19 = test system: SNB-19
SNB-75 = test system: SNB-75
UO-31 = test system: UO-31
HL-60 = test system: HL-60
SR = test system: SR

Structure (SMILES)	GI50 (786-0)	GI50 (ACHN)	GI50 (CCRF-CEM)	GI50 (COLO 205)	GI50 (EKVX)	GI50 (HCT-15) [µM]	GI50 (LOX IMVI)	GI50 (NCI-H226)	GI50 (NCI/ADR-RES)	GI50 (OVCAR-3)	GI50 (OVCAR-8)	GI50 (RPMI-8226)	GI50 (SF-268)	GI50 (SK-MEL-28)	GI50 (SK-OV-3)	GI50 (SNB-19)	GI50 (SNB-75)	GI50 (UO-31)	GI50 (HL-60)	GI50 (SR)
S=C(Nc1ccc(/N=N/c2ccccc2)cc1)SCc1ccccc1	17.8 µM (inactive)	17.5 µM (inactive)	15.9 µM (inactive)	23.1 µM (inactive)	24.8 µM (inactive)	15.1	18.7 µM (inactive)	18.9 µM (inactive)	17.8 µM (inactive)	15.6 µM (inactive)	7.35 µM (inactive)	5.04 µM (inactive)	17 µM (inactive)	18.1 µM (inactive)	38.8 µM (inactive)	18.5 µM (inactive)	18.4 µM (inactive)	18.8 µM (inactive)		
CC1=C(C(=O)Nc2ccccc2)C(c2cc(Cl)cc(Cl)c2)C(C(=O)Nc2ccccc2)=C(C)N1	9.04 µM (inactive)	8.15 µM (inactive)	3.02 µM (inactive)	17 µM (inactive)	17.4 µM (inactive)	1.71	4.79 µM (inactive)	15.1 µM (inactive)		8.22 µM (inactive)	10.5 µM (inactive)	3.84 µM (inactive)	9.79 µM (inactive)	14.2 µM (inactive)	36.8 µM (inactive)	14.2 µM (inactive)	10.8 µM (inactive)	13.9 µM (inactive)	1.78 µM (inactive)	2.72 µM (inactive)
COc1ccc(NC(=O)Oc2cc(C)c3ccc(=O)cc-3o2)c(OC)c1.COc1ccc(NC(=O)Oc2ccc3c(C)cc(=O)oc3c2)c(OC)c1	> 100 µM (inactive)	> 100 µM (inactive)		> 100 µM (inactive)	> 100 µM (inactive)	> 100		> 100 µM (inactive)	> 100 µM (inactive)	> 100 µM (inactive)	> 100 µM (inactive)	> 100 µM (inactive)	> 100 µM (inactive)	> 100 µM (inactive)	> 100 µM (inactive)	> 100 µM (inactive)		> 100 µM (inactive)		
O=C(Nc1ccc(Cl)cc1Cl)c1cc2nc3ccccc3c(=O)n2c2ccccc12	> 10 µM (inactive)		> 10 µM (inactive)		> 10 µM (inactive)	> 10	> 10 µM (inactive)		> 10 µM (inactive)	> 10 µM (inactive)	> 10 µM (inactive)		> 10 µM (inactive)	> 10 µM (inactive)	> 10 µM (inactive)	> 10 µM (inactive)		> 10 µM (inactive)	> 10 µM (inactive)	
Cc1ccccc1-c1c(N)nc(N)nc1C(=O)Nc1nccs1	> 100 µM (inactive)	> 100 µM (inactive)	> 100 µM (inactive)	> 100 µM (inactive)	> 100 µM (inactive)	> 100	> 100 µM (inactive)	> 100 µM (inactive)		> 100 µM (inactive)	> 100 µM (inactive)	> 100 µM (inactive)	> 100 µM (inactive)	> 100 µM (inactive)	> 100 µM (inactive)	> 100 µM (inactive)	> 100 µM (inactive)	> 100 µM (inactive)	> 100 µM (inactive)	> 100 µM (inactive)
CN1Cc2ccccc2/C=C\c2ccccc21	95.9 µM (inactive)	> 100 µM (inactive)	47.3 µM (inactive)	44.5 µM (inactive)	30.8 µM (inactive)	52.4	72.9 µM (inactive)	> 100 µM (inactive)	> 100 µM (inactive)	47.3 µM (inactive)	> 100 µM (inactive)	25.4 µM (inactive)	39.4 µM (inactive)	> 100 µM (inactive)	87.3 µM (inactive)	> 100 µM (inactive)	65.6 µM (inactive)	80.2 µM (inactive)		
COC(C(=O)NCCCCNC(=O)C(OC)c1ccccc1)c1ccccc1 (stereo not given)	> 100 µM (inactive)	> 100 µM (inactive)	> 100 µM (inactive)	> 100 µM (inactive)	> 100 µM (inactive)	> 100	> 100 µM (inactive)	> 100 µM (inactive)		> 100 µM (inactive)	> 100 µM (inactive)	> 100 µM (inactive)	> 100 µM (inactive)	> 100 µM (inactive)	> 100 µM (inactive)	> 100 µM (inactive)	> 100 µM (inactive)	> 100 µM (inactive)	> 100 µM (inactive)	> 100 µM (inactive)
CC(=O)C1C(=O)C(=O)N(c2cccc([N+](=O)[O-])c2)C1=O (stereo not given)	> 100 µM (inactive)	> 100 µM (inactive)	> 100 µM (inactive)	> 100 µM (inactive)	> 100 µM (inactive)	> 100	> 100 µM (inactive)	> 100 µM (inactive)	> 100 µM (inactive)	> 100 µM (inactive)	> 100 µM (inactive)		> 100 µM (inactive)	> 100 µM (inactive)	> 100 µM (inactive)	> 100 µM (inactive)	> 100 µM (inactive)	> 100 µM (inactive)	> 100 µM (inactive)	
